Where two headings read alike, the source gives them in different places. Numbered stars: 1 amine (or outer) side, 2 acyl side, 3 side chain; on linkers, the order of the positions; unused ones are H or OH. Bridge positions count the residues as written; N and C are the ends. Square brackets hold non-standard residues; d marks the D form. Peptide text beside a SMILES is read from it. NH(CH2)9CO = O=C(CCCCCCCCCN[*:1])[*:2]; NH(CH2)8CO = O=C(CCCCCCCCN[*:1])[*:2]; Aoc = NCCCCCCCC(=O)O Bounds are passed on as bounds.

Data on 16 compounds can be found in patent US11034725B2, “Compositions and methods for treating cardiovascular disease” (Genentech, Inc., priority 2016, dated 2021).

In one assay the target is PCSK9 (Homo sapiens, UniProt Q8NBP7). Briefly: PCSK9/EGF(A) TR-FRET binding assay. The following applies: TR-FRET, read-out: PCSK9/EGF(A) IC50. In general terms: TR-FRET usually uses a lanthanide donor and a delayed reading to cut background.
PCSK9, sequence (Q8NBP7 153-692): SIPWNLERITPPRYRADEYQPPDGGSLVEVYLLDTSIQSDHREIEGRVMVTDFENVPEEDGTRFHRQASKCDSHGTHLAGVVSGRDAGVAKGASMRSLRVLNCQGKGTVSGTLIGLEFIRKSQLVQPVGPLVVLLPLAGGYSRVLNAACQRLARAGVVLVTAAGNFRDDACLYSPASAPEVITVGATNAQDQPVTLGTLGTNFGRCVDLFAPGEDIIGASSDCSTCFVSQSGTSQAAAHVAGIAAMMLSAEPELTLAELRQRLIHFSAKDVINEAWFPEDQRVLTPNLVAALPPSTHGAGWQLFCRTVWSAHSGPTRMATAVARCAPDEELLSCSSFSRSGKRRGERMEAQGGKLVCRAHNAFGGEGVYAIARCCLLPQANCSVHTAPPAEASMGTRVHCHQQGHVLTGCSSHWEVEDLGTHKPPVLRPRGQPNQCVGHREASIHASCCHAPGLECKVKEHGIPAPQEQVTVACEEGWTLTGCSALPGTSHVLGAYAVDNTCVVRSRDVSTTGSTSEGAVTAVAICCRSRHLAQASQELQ
PCSK9, sequence (Q8NBP7 31-152 partner limits assumed): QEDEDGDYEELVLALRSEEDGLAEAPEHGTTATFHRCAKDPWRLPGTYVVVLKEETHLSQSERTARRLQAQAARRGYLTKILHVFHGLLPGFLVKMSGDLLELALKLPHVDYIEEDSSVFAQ
For a further assay, the target named is T1, PCSK9Δhelix (Homo sapiens, UniProt Q8NBP7).
T1 construct: Human PCSK9 construct M1-Q692 with an engineered TEV site (residue deletion Y166, R167); made in house; host or cells: CHO
T1 sequence (Q8NBP7 with tags, fused parts or gaps limits assumed): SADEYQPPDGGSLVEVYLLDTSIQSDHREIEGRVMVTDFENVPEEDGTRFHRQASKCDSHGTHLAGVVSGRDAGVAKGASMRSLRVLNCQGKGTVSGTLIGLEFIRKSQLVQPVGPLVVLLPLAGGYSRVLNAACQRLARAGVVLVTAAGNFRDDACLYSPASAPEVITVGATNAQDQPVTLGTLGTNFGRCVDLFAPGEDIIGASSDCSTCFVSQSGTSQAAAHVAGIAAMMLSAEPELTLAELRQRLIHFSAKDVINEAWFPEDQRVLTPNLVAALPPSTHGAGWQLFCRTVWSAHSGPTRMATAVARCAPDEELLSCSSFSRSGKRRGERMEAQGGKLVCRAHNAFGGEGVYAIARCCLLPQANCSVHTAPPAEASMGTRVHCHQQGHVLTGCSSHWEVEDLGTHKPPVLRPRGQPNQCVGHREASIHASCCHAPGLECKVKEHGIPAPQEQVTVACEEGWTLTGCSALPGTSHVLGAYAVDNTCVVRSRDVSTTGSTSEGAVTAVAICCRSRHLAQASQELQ
T1 sequence (Q8NBP7 31-152 partner limits assumed): as the sequence (Q8NBP7 31-152 partner limits assumed) above
Briefly: PCSK9Δhelix/Ab20 TR-FRET binding assay. The following applies: for IC50: TR-FRET, Table 8D, disulfide-cyclized extension peptides, read-out: PCSK9Δhelix/Ab20 IC50.

A further assay concerns His-EGF(A)-Fc. Briefly: His-EGF(A)-Fc TR-FRET counterscreen. The following applies: TR-FRET counterscreen; Table 8D; * = some inhibition at highest concentrations, not sufficient to fit an IC50.
[1] abbreviates: Table 8D, disulfide-cyclized extension peptides.

Turning to `CC[C@H](C)[C@@H]1NC(=O)[C@H](CCCNC(=N)N)NC(=O)[C@H](CCC(N)=O)NC(=O)[C@H](CC(C)C)NC(=O)[C@H](CC(N)=O)NC(=O)[C@H](Cc2c[nH]c3ccccc23)NC(=O)[C@@H]2CCCN2C(=O)[C@H](CC(C)C)NC(=O)[C@H](CCCNC(=N)N)NC(=O)[C@@H](NC(C)=O)CSSC[C@@H](C(N)=O)NC(=O)[C@@H]2CCCN2C(=O)[C@H](CC(C)C)NC(=O)[C@H](C)NC1=O` [Compound 70] (Ac-CRLPWNLQRIALPC-NH2; disulfide 1-14), the IC50 at PCSK9 (setting [1]) is more than 50 µM; on PCSK9Δhelix, 7.26 µM; with His-EGF(A)-Fc, more than 50 µM.

Take `CC(=O)N[C@H]1CSSC[C@@H](C(N)=O)NC(=O)[C@@H]2CCCN2C(=O)[C@H](CC(C)C)NC(=O)CNC(=O)[C@H](C)NC(=O)[C@H](CCCNC(=N)N)NC(=O)[C@H](CCC(N)=O)NC(=O)[C@H](CC(C)C)NC(=O)[C@H](CC(N)=O)NC(=O)[C@H](Cc2c[nH]c3ccccc23)NC(=O)[C@@H]2CCCN2C(=O)[C@H](CC(C)C)NC(=O)[C@H](CCCNC(=N)N)NC1=O` [Compound 71] (Ac-CRLPWNLQRAGLPC-NH2; disulfide 1-14): the IC50 on PCSK9 (setting [1]) was more than 50 µM; at PCSK9Δhelix, 49.5 µM; in the assay on His-EGF(A)-Fc, more than 50 µM.

Consider `CC[C@H](C)[C@@H]1NC(=O)[C@H](C)NC(=O)[C@H](CCC(N)=O)NC(=O)[C@H](CC(C)C)NC(=O)[C@H](CC(N)=O)NC(=O)[C@H](Cc2c[nH]c3ccccc23)NC(=O)[C@@H]2CCCN2C(=O)[C@H](CC(C)C)NC(=O)[C@H](CCCNC(=N)N)NC(=O)[C@@H](NC(C)=O)CSSC[C@@H](C(N)=O)NC(=O)[C@@H]2CCCN2C(=O)[C@H](CC(C)C)NC(=O)CNC1=O` [Compound 72] (Ac-CRLPWNLQAIGLPC-NH2; disulfide 1-14), for which the IC50 at PCSK9 (setting [1]) was more than 50 µM; at PCSK9Δhelix it was 39.6 µM; with His-EGF(A)-Fc it was more than 50 µM.

Turning to `CC[C@H](C)[C@@H]1NC(=O)[C@H](CCCNC(=N)N)NC(=O)[C@H](CCC(N)=O)NC(=O)[C@H](C)NC(=O)[C@H](CC(N)=O)NC(=O)[C@H](Cc2c[nH]c3ccccc23)NC(=O)[C@@H]2CCCN2C(=O)[C@H](CC(C)C)NC(=O)[C@H](CCCNC(=N)N)NC(=O)[C@@H](NC(C)=O)CSSC[C@@H](C(N)=O)NC(=O)[C@@H]2CCCN2C(=O)[C@H](CC(C)C)NC(=O)CNC1=O` [Compound 74] (Ac-CRLPWNAQRIGLPC-NH2; disulfide 1-14), the IC50 on PCSK9 (setting [1]) was more than 50 µM; on PCSK9Δhelix, 49.5 µM; in the assay on His-EGF(A)-Fc, more than 50 µM.

`CC[C@H](C)[C@@H]1NC(=O)[C@H](CCCNC(=N)N)NC(=O)[C@H](CCC(N)=O)NC(=O)[C@H](CC(C)C)NC(=O)[C@H](C)NC(=O)[C@H](Cc2c[nH]c3ccccc23)NC(=O)[C@@H]2CCCN2C(=O)[C@H](CC(C)C)NC(=O)[C@H](CCCNC(=N)N)NC(=O)[C@@H](NC(C)=O)CSSC[C@@H](C(N)=O)NC(=O)[C@@H]2CCCN2C(=O)[C@H](CC(C)C)NC(=O)CNC1=O` [Compound 75] (Ac-CRLPWALQRIGLPC-NH2; disulfide 1-14): the IC50 was more than 50 µM on PCSK9 (setting [1]), 49.5 µM at PCSK9Δhelix and more than 50 µM in the assay on His-EGF(A)-Fc.

`CC[C@H](C)[C@@H]1NC(=O)[C@H](CCCNC(=N)N)NC(=O)[C@H](CCC(N)=O)NC(=O)[C@H](CC(C)C)NC(=O)[C@H](CC(N)=O)NC(=O)[C@H](C)NC(=O)[C@@H]2CCCN2C(=O)[C@H](CC(C)C)NC(=O)[C@H](CCCNC(=N)N)NC(=O)[C@@H](NC(C)=O)CSSC[C@@H](C(N)=O)NC(=O)[C@@H]2CCCN2C(=O)[C@H](CC(C)C)NC(=O)CNC1=O` [Compound 76] (Ac-CRLPANLQRIGLPC-NH2; disulfide 1-14): the IC50 on PCSK9 (setting [1]) was more than 50 µM; on PCSK9Δhelix it was 49.5 µM; with His-EGF(A)-Fc, more than 50 µM.

As to `CC[C@H](C)[C@@H]1NC(=O)[C@H](CCCNC(=N)N)NC(=O)[C@H](CCC(N)=O)NC(=O)[C@H](CC(C)C)NC(=O)[C@H](CC(N)=O)NC(=O)[C@H](Cc2c[nH]c3ccccc23)NC(=O)[C@H](C)NC(=O)[C@H](CC(C)C)NC(=O)[C@H](CCCNC(=N)N)NC(=O)[C@@H](NC(C)=O)CSSC[C@@H](C(N)=O)NC(=O)[C@@H]2CCCN2C(=O)[C@H](CC(C)C)NC(=O)CNC1=O` [Compound 77] (Ac-CRLAWNLQRIGLPC-NH2; disulfide 1-14), the IC50 on PCSK9 (setting [1]) is more than 50 µM; on PCSK9Δhelix, 6.02 µM; in the assay on His-EGF(A)-Fc it was more than 50 µM.

With `CC[C@H](C)[C@@H]1NC(=O)[C@H](CCCNC(=N)N)NC(=O)[C@H](CCC(N)=O)NC(=O)[C@H](CC(C)C)NC(=O)[C@H](CC(N)=O)NC(=O)[C@H](Cc2c[nH]c3ccccc23)NC(=O)[C@@H]2CCCN2C(=O)[C@H](C)NC(=O)[C@H](CCCNC(=N)N)NC(=O)[C@@H](NC(C)=O)CSSC[C@@H](C(N)=O)NC(=O)[C@@H]2CCCN2C(=O)[C@H](CC(C)C)NC(=O)CNC1=O` [Compound 78] (Ac-CRAPWNLQRIGLPC-NH2; disulfide 1-14), the values for the IC50 at PCSK9 (setting [1]), at PCSK9Δhelix and in the assay on His-EGF(A)-Fc were more than 50 µM, 5.56 µM and more than 50 µM, respectively.

Regarding `CC[C@H](C)[C@@H]1NC(=O)[C@H](CCCNC(=N)N)NC(=O)[C@H](CCC(N)=O)NC(=O)[C@H](CC(C)C)NC(=O)[C@H](CC(N)=O)NC(=O)[C@H](Cc2c[nH]c3ccccc23)NC(=O)[C@@H]2CCCN2C(=O)[C@H](CC(C)C)NC(=O)[C@H](C)NC(=O)[C@@H](NC(C)=O)CSSC[C@@H](C(N)=O)NC(=O)[C@@H]2CCCN2C(=O)[C@H](CC(C)C)NC(=O)CNC1=O` [Compound 79] (Ac-CALPWNLQRIGLPC-NH2; disulfide 1-14), the IC50 is more than 50 µM at PCSK9 (setting [1]), 1.53 µM on PCSK9Δhelix and more than 50 µM with His-EGF(A)-Fc.

With `CC[C@H](C)[C@@H]1NC(=O)[C@H](CCCNC(=N)N)NC(=O)[C@H](CCC(N)=O)NC(=O)[C@H](CC(C)C)NC(=O)[C@H](CC(N)=O)NC(=O)[C@H](Cc2c[nH]c3ccccc23)NC(=O)[C@@H]2CCCN2C(=O)[C@H](CC(C)C)NC(=O)[C@H](CCCNC(=N)N)NC(=O)[C@@H](NC(C)=O)CSSC[C@@H](C(N)=O)NC(=O)CNC(=O)CNC(=O)CNC1=O` [Compound 81] (Ac-CRLPWNLQRIGGGC-NH2; disulfide 1-14), the IC50 was more than 50 µM on PCSK9 (setting [1]), 28.8 µM at PCSK9Δhelix and more than 50 µM in the assay with His-EGF(A)-Fc.

With `CC(=O)N[C@H]1CSSC[C@@H](C(N)=O)NC(=O)CCCCCCCCCNC(=O)[C@H](CCCNC(=N)N)NC(=O)[C@H](CCC(N)=O)NC(=O)[C@H](CC(C)C)NC(=O)[C@H](CC(N)=O)NC(=O)[C@H](Cc2c[nH]c3ccccc23)NC(=O)[C@@H]2CCCN2C(=O)[C@H](CC(C)C)NC(=O)[C@H](CCCNC(=N)N)NC1=O` [Compound 84] (Ac-CRLPWNLQR[NH(CH2)9CO]C-NH2; disulfide 1-11), the IC50 on PCSK9 (setting [1]), at PCSK9Δhelix and with His-EGF(A)-Fc was more than 50 µM in each case. Further, the “inhibition in the PCSK9Δhelix/Ab20 binding assay” value on PCSK9Δhelix is reported as “removes inhibition”.

For `CC(=O)N[C@H]1CSSC[C@@H](C(N)=O)NC(=O)CCCCCCCCNC(=O)[C@H](CCCNC(=N)N)NC(=O)[C@H](CCC(N)=O)NC(=O)[C@H](CC(C)C)NC(=O)[C@H](CC(N)=O)NC(=O)[C@H](Cc2c[nH]c3ccccc23)NC(=O)[C@@H]2CCCN2C(=O)[C@H](CC(C)C)NC(=O)[C@H](CCCNC(=N)N)NC1=O` [Compound 85] (Ac-CRLPWNLQR[NH(CH2)8CO]C-NH2; disulfide 1-11), the IC50 at PCSK9 (setting [1]), on PCSK9Δhelix and in the assay on His-EGF(A)-Fc was more than 50 µM each time. For the same compound, the “inhibition in the PCSK9Δhelix/Ab20 binding assay” value at PCSK9Δhelix was “removes inhibition”.

Take `CC(=O)N[C@H]1CSSC[C@@H](C(N)=O)NC(=O)CCCCCCCNC(=O)[C@H](CCCNC(=N)N)NC(=O)[C@H](CCC(N)=O)NC(=O)[C@H](CC(C)C)NC(=O)[C@H](CC(N)=O)NC(=O)[C@H](Cc2c[nH]c3ccccc23)NC(=O)[C@@H]2CCCN2C(=O)[C@H](CC(C)C)NC(=O)[C@H](CCCNC(=N)N)NC1=O` [Compound 86] (Ac-CRLPWNLQR[Aoc]C-NH2; disulfide 1-11): the IC50 on PCSK9 (setting [1]), on PCSK9Δhelix and in the assay with His-EGF(A)-Fc was more than 50 µM in each case. The “inhibition in the PCSK9Δhelix/Ab20 binding assay” value on PCSK9Δhelix is on record as “removes inhibition”.

Regarding `CC[C@H](C)[C@@H]1NC(=O)[C@H](CCCNC(=N)N)NC(=O)[C@H](CCCCN)NC(=O)[C@H](CC(C)C)NC(=O)[C@H](CC(N)=O)NC(=O)[C@H](Cc2c[nH]c3ccccc23)NC(=O)[C@H](CC(C)C)NC(=O)[C@@H](NC(=O)CNC(C)=O)CSSC[C@@H](C(=O)N[C@@H](Cc2c[nH]c3ccccc23)C(=O)N[C@@H](Cc2ccccc2)C(N)=O)NC(=O)[C@H](CCC(N)=O)NC(=O)[C@H](CO)NC(=O)CNC1=O` [Compound 87] (Ac-GCLWNLKRIGSQCWF-NH2; disulfide 2-13 (inferred)), the IC50 on PCSK9 (setting [1]) was more than 50 µM; at PCSK9Δhelix, 9.53 µM; with His-EGF(A)-Fc, more than 50 µM.

For `CC[C@H](C)[C@@H]1NC(=O)[C@H](CCCNC(=N)N)NC(=O)[C@H](C)NC(=O)[C@H](CC(C)C)NC(=O)[C@H](CC(N)=O)NC(=O)[C@H](Cc2c[nH]c3ccccc23)NC(=O)[C@H](CC(C)C)NC(=O)[C@@H](NC(=O)[C@H](Cc2ccccc2)NC(C)=O)CSSC[C@@H](C(=O)N[C@@H](Cc2c[nH]c3ccccc23)C(=O)N[C@@H](Cc2ccccc2)C(N)=O)NC(=O)[C@H](CCC(N)=O)NC(=O)[C@H](CO)NC(=O)CNC1=O` [Compound 88] (Ac-FCLWNLARIGSQCWF-NH2; disulfide 2-13), the IC50 on PCSK9 (Example 7) is 17.9 µM; at PCSK9Δhelix, 7.46 µM; in the assay on His-EGF(A)-Fc, more than 50 µM.

In the case of `CC[C@H](C)[C@@H]1NC(=O)[C@H](CCCNC(=N)N)NC(=O)[C@H](CCCCN)NC(=O)[C@H](CC(C)C)NC(=O)[C@H](CC(N)=O)NC(=O)[C@H](Cc2c[nH]c3ccccc23)NC(=O)[C@H](CC(C)C)NC(=O)[C@@H](NC(=O)[C@@H](N)Cc2c[nH]c3ccccc23)CSSC[C@@H](C(=O)N[C@@H](Cc2c[nH]c3ccccc23)C(=O)N[C@@H](Cc2ccccc2)C(N)=O)NC(=O)[C@H](CCC(N)=O)NC(=O)[C@H](CO)NC(=O)CNC1=O` [Compound 89] (H-WCLWNLKRIGSQCWF-NH2; disulfide 2-13), the IC50 on PCSK9 (setting [1]) came out at 6.9 µM; on PCSK9Δhelix, 2.98 µM; in the assay on His-EGF(A)-Fc, 38.4 µM.
